≈ marks a conversion by molar mass, not a printed value.
Columns and labels:
[1] = tested on: mice; test: Evaluation toxicity, 90-day daily intragastric administration in mice; assay type: in vivo; details: for Percentage of dead mice (%): purity min 95%
Experimental: To investigate the toxicity of tyrphostin AG17 the following doses were tested in mice, the animals were randomly divided into experimental groups corresponding to different doses of tyrphostin. Tyrphostin was administered intragastric via daily for 90 days, after 90 days, the mice were weighed and sacrificed by cervical dislocation.
In a second evaluation for the treatments with 5.50 mg/kg to 55.50 mg/kg of tyrphostin, using a lot tyrphostin AG17 with a minimum purity of 98% is used; the percentage of dead mice is reduced to 0% and in the case of the treatment with 100.00 mg/kg, the deaths are reduced to 10%.

[2] = tested on: mice; test: Subacute toxicity, 14-day daily intragastric administration; assay type: in vivo
Experimental: Animal studies in male and female mice of the CDI strain, and male rats of the Wistar strain were used.
During the quarantine period (15 days) they were kept in a chamber with conditions of (22+2° C., 55+5% humidity and a light/dark cycle of 12:12 h), with food and water ad libitum. Prior to the start of the experiment, the animals (mice and rats) were deprived of food for 4 h, and recovered 2 h after the administration of the drug.
The test animals were randomly divided into experimental groups corresponding to different doses of the drug, as shown in Table 2.

[3] = in vivo, 10 mg
[4] = tested on: mice; test: Evaluation toxicity, 90-day daily intragastric administration in mice; assay type: in vivo; details: for Percentage of dead mice (%): purity min 95%; remark: listed apart in the source
[5] = in vivo; details: 10 mg, t1/2 (h)
[6] = pH 7.2; cited from earlier work
[7] = tested on: rat; details: cited from earlier work

For CC(C)(C)c1cc(C=C(C#N)C#N)cc(C(C)(C)C)c1O [tyrphostin AG17, Tyrphostin AG17], the “Percentage of dead mice (%)” value ([1]; T1: 0.0001 mg/Kg daily 90 days) was 0%, the “Percentage of dead mice (%)” value ([1]; T3: 0.001 mg/Kg daily 90 days) was 0% and the “Percentage of dead mice (%)” value ([1]; T5: 0.175 mg/Kg daily 90 days) was 0%. For the same compound, the “Percentage of dead mice (%)” value ([1]; T7: 0.76 mg/Kg daily 90 days) was 0%, the “Percentage of dead mice (%)” value ([1]; T8: 1.70 mg/Kg daily 90 days) was 0% and the “Percentage of dead mice (%)” value ([1]; T9: 1.75 mg/Kg daily 90 days) was 0%. For the same compound, the “Signs of toxicity during 90-day treatment” value ([1]; doses below 1.75 mg/kg) was “no apparent signs of toxicity”, the “Death, share of the population” value ([2]; 100.00 mg/kg) was 40% and the “Time until recovery from lethargy” value ([2]; 5.50 to 55.50 mg/kg) was 12 h. For the same compound, the “Signs of subacute toxicity presented” value ([2]; AT1: 0.175 mg/Kg daily 14 days) was “No apparent signs”, the “Signs of subacute toxicity presented” value ([2]; AT2: 0.55 mg/Kg daily 14 days) was “No apparent signs” and the “Signs of subacute toxicity presented” value ([2]; AT3: 1.75 mg/Kg daily 14 days) was “No apparent signs”. For the same compound, the “Signs of subacute toxicity presented” value ([2]; AT4: 5.50 mg/Kg daily 14 days) was “Lethargy (10%)”, the “Lethargy, share of the population” value ([2]; AT4 group, 5.50 mg/kg) was 10% and the “Signs of subacute toxicity presented” value ([2]; AT5: 55.50 mg/Kg daily 14 days) was “Lethargy (20%)”. The “Lethargy, share of the population” value ([2]; AT5 group, 55.50 mg/kg) was 20%, the “Signs of subacute toxicity presented” value ([2]; AT6: 100.00 mg/Kg daily 14 days) was “Death (40%)” and the “Vdapa (L), Geometric Mean” value [3] was 22.038 L. The “Vdapa (L), Mean” value [3] was 22.537 L, the “Vdapa (L), Median” value [3] was 22.494 L and the “Percentage of dead mice, second evaluation” value ([4]; 5.50 mg/kg to 55.50 mg/kg, lot with minimum purity of 98%) was 0%. The “Percentage of dead mice (deaths), second evaluation” value ([4]; 100.00 mg/kg, lot with minimum purity of 98%) was 10%, the “Percentage of dead mice (%)” value ([4]; T2: 0.000175 mg/Kg daily 90 days) was 0% and the “Percentage of dead mice (%)” value ([4]; T4: 0.0175 mg/Kg daily 90 days) was 0%. For the same compound, the “Percentage of dead mice (%)” value ([4]; T6: 0.18 mg/Kg daily 90 days) was 0%, the “Percentage of dead mice (%)” value ([4]; T10: 5.50 mg/Kg daily 90 days) was 10% and the “Percentage of dead mice (%)” value ([4]; T11: 17.50 mg/Kg daily 90 days) was 10%. For the same compound, the “Percentage of dead mice (%)” value ([4]; T12: 25.00 mg/Kg daily 90 days) was 0%, the “Percentage of dead mice (%)” value ([4]; T12: 25.00 mg/Kg daily 90 days, listed as tyrphostin) was “did not show any dead mice” and the “Percentage of dead mice (%)” value ([4]; T13: 28.00 mg/Kg daily 90 days) was 10%. The “Percentage of dead mice (%)” value ([4]; T14: 40.00 mg/Kg daily 90 days) was 10%, the “Percentage of dead mice (%)” value ([4]; T15: 50.00 mg/Kg daily 90 days) was 20% and the “Percentage of dead mice (%)” value ([4]; T16: 55.50 mg/Kg daily 90 days) was 20%. The “Percentage of dead mice (%)” value ([4]; T17: 100.00 mg/Kg daily 90 days) was 40%, the half-life ([5]; Geometric Mean) was 3.36 days and the half-life ([5]; Mean) was 3.43 days. The half-life ([5]; Median) was 3.13 days, the Solubility [6] was about 0.15 mg/mL (≈ 531 µM) and the “oral LD50” value [7] was 87 mg/kg.

— patent US20240374552A1, “Compositions and Methods for Preventing or Reducing the Risk of Metabolic Syndrome” (priority 2021, published 2024)
